Measured values from patent US6869964B2, “Heterocyclicsulfonamide hepatitis C virus inhibitors” (Bristol-Myers Squibb Company, priority 2002, dated 2005).

Tests used:
[1] = tested on: HCV replicon in Huh7 cells; experiment: HCV replicon cell-based assay (FRET); set-up: species or system HCV strain 1B; details: Hepatitis C virus, Huh-7; replicon, activity range; read-out: EC50 a, b, c (Activity Table)
Excerpt: HCV Replicon Cell-based Assay
An HCV replicon whole cell system was established as described by Lohmann V, Korner F, Koch J, Herian U, Theilmann L, Bartenschlager R., Science 285(5424): 110-3 (1999). This system enabled us to evaluate the effects of our HCV Protease compounds on HICV RNA replication. Briefly, using the HCV strain 1B sequence described in the Lohmann paper (Assession number: AJ238799), an HCV cDNA was generated encoding the 5′ internal ribosome entry site (IRES), the neomycin resistance gene, the EMCV (encephalomyocarditis virus)-IRES and the HCV nonstructural proteins, NS3-NS5B, and 3′ non-translated region (NTR). In vitro transcripts of the cDNA were transfected into the human hepatoma cell line, Huh7. […] Resulting cell lines were characterized for positive and negative strand RNA production and protein production over time.
Huh7 cells, constitutively expressing the HCV replicon, were grown in Dulbecco's Modified Eagle Media (DMEM) containing 10% Fetal calf serum (FCS) and 1 mg/ml G418 (Gibco-BRL). Cells were seeded the night before (1.5×10^4 cells/well) in 96-well tissue-culture sterile plates. Compound and no compound controls were prepared in DMEM containing 4% FCS, 1:100 Penicillin/Streptomysin, 1:100 L-glutamine and 5% DMSO in the dilution plate (0.5% DMSO final concentration in the assay). Compound/DMSO mixes were added to the cells and incubated for 4 days at 37° C. After 4 days, plates were rinsed thoroughly with Phosphate-Buffered Saline (PBS) (3 times 150 μl). The cells were lysed with 25 μl of a lysis assay reagent containing the FRET peptide (RET S1, as described for the in vitro enzyme assay). The lysis assay reagent was made from 5× cell Luciferase cell culture lysis reagent(Promega #E153A) diluted to 1× with distilled water, NaCl added to 150 mM final, the FRET peptide diluted to 10 μM final from a 2 mM stock in 100% DMSO. The plate was then placed into the Cytofluor 4000 instrument which had been set to 340 nm excitation/490 emission, automatic mode for 21 cycles and the plate read in a kinetic mode. EC50 determinations were carried out as described for the IC50 determinations.

[2] = biological target: T1, HCV NS3/4A protease complex (BMS strain) (Hepatitis C virus genotype 1a, UniProt P27958, C1454S); experiment: Recombinant HCV NS3/4A protease complex FRET peptide assay, BMS strain; format: biochemical, HCV genotype 1a; details: NS3/4A BMS Strain, activity range; read-out: IC50 a, b, c (Activity Table)
T1 construct: HCV NS3/4A protease complex (amino acids 1027 to 1711); inferred from pET21b vector and Ni-NTA purification; made in house; host or cells: Escherichia coli BL21 (DE3), pET21b
T1 sequence (P27958 1027-1657 C1454S): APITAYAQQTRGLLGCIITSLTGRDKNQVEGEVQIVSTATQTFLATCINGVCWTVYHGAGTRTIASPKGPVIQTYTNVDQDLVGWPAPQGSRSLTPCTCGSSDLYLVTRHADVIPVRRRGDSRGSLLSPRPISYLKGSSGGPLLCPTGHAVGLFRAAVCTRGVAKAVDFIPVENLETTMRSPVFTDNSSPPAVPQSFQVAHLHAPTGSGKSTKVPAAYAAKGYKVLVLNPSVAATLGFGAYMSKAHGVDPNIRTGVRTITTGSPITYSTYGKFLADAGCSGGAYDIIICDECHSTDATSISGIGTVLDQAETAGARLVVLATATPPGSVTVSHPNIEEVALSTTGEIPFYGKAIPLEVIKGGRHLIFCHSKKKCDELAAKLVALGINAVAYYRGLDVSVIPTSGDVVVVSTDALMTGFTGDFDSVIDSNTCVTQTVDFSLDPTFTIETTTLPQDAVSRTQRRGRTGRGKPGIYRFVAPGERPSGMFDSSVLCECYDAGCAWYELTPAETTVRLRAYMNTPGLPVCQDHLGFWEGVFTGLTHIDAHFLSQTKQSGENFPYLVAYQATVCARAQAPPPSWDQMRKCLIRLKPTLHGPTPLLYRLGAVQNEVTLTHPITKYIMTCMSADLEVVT
T1 sequence (P27958 1658-1711 partner, looked up, stated change not applied): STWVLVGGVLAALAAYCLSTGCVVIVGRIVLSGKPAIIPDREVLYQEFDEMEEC
Excerpt: Recombinant HCV NS3/4A Protease Complex FRET Peptide Assay
The purpose of this in vitro assay was to measure the inhibition of HCV NS3 protease complexes, derived from the BMS, H77C or J4l6S strains, as described below, by compounds of the present invention. This assay provides an indication of how effective compounds of the present invention would be in inhibiting HCV proteolytic activity.
Serum from an HCV-infected patient was obtained from Dr. T. Wright, San Francisco Hospital. An engineered full-length cDNA template of the HCV genome (BMS strain) was constructed from DNA fragments obtained by reverse transcription-PCR (RT-PCR) of serum RNA and using primers selected on the basis of homology between other genotype la strains. From the determination of the entire genome sequence, a genotype la was assigned to the HCV isolate according to the classification of Simmonds et al. (See P Simmonds, K A Rose, S Graham, S W Chan, F McOmish, B C Dow, E A Follett, P L Yap and H Marsden, J. Clin. Microbiol., 31(6), 1493-1503 (1993)). […] The infectious clones, H77C (1a genotype) and J4 L6S (1b genotype) were obtained from R. Purcell (NIH) and the sequences are published in Genbank (AAB67036, see Yanagi, M., Purcell, R. H., Emerson, S. U. and Bukh, J. Proc. Natl. Acad. Sci. U.S.A. 94(16),8738-8743 (1997); AF054247, see Yanagi, M., St Claire, M., Shapiro, M., Emerson, S. U., Purcell, R. H. and Bukh, J, Virology 244 (1), 161-172. (1998)).
The BMS, H77C and J4 L6S strains were used for production of recombinant NS3/4A protease complexes. DNA encoding the recombinant HCV NS3/4A protease complex (amino acids 1027 to 1711) for these strains were manipulated as described by P. Gallinari et al. (see Gallinari P, Paolini C, Brennan D, Nardi C, Steinkuhler C, De Francesco R. Biochemistry. 38(17):5620-32, (1999)). Briefly, a three-lysine solubilizing tail was added at the 3′-end of the NS4A coding region. The cysteine in the P1 position of the NS4A-NS4B cleavage site (amino acid 1711) was changed to a glycine to avoid the proteolytic cleavage of the lysine tag. Furthermore, a cysteine to serine mutation was introduced by PCR at amino acid position 1454 to prevent the autolytic cleavage in the NS3 helicase domain. The variant DNA fragment was cloned in the pET21b bacterial expression vector (Novagen) and the NS3/4A complex was expressed in Escherichia coli strain BL21 (DE3) (Invitrogen) following the protocol described by P. Gallinari et al. (see Gallinari P, Brennan D, Nardi C, Brunetti M, Tomei L, Steinkuhler C, De Francesco R., J Virol. 72(8):6758-69 (1998)) with modifications. Briefly, NS3/4A expression was induced with 0.5 mM Isopropyl β-D-1-thiogalactopyranoside (IPTG) for 22 hr at 20° C. A typical fermentation (10 L) yielded approximately 80 g of wet cell paste. The cells were resuspended in lysis buffer (10 mL/g) consisting of 25 mM N-(2-Hydroxyethyl)Piperazine-N′-(2-Ethane Sulfonic acid) (HEPES), pH7.5, 20% glycerol, 500 mM Sodium Chloride (NaCl), 0.5% Triton-X100, 1 ug/ml lysozyme, 5 mM Magnesium Chloride (MgCl2), 1 ug/ml DnaseI, 5 mM β-Mercaptoethanol (βME), Protease inhibitor—Ethylenediamine Tetraacetic acid (EDTA) free (Roche), homogenized and incubated for 20 mins at 4° C. The homogenate was sonicated and clarified by ultra-centrifugation at 235000 g for lhr at 4° C. Imidazole was added to the supernatant to a final concentration of 15 mM and the pH adjusted to 8.0. The crude protein extract was loaded on a Nickel—Nitrilotriacetic acid (Ni—NTA) column pre-equilibrated with buffer B (25 mM HEPES, pH8.0, 20% glycerol, 500 mM NaCl, 0.5% Triton-X100, 15 mM imidazole, 5 mM βME). The sample was loaded at a flow rate of 1 mL/min. The column was washed with 15 column volumes of buffer C (same as buffer B except with 0.2% Triton-X100). The protein was eluted with 5 column volumes of buffer D (same as buffer C except with 200 mM Imidazole). […]

Compound	EC50 [1]	IC50 [2]
C=CC1C[C@]1(NC(=O)[C@@H]1C[C@@H](Oc2cc(-c3ccccc3)nc3cc(OC)ccc23)CN1C(=O)[C@@H](NC(=O)OC(C)(C)C)C(C)(C)C)C(=O)NS(=O)(=O)C1CCS(=O)(=O)C1 (mixture of isomers) [Compound 13, {1-[2-[1-(1,1-Dioxo-tetrahydro-1H-1[…]6-thiophene-3(R/S)-sulfonylaminocarbonyl)-2-vinylcyclopropylcarbamoyl]-4-(7-methoxy-2-phenyl-quinolin-4-yloxy)pyrrolidine-1-carbonyl]-2,2-dimethylpropyl}carbamic acid tert-butyl ester]	100 to 1000 nM	< 100 nM
C=CC1C[C@]1(NC(=O)[C@@H]1C[C@@H](Oc2cc(-c3ccccc3)nc3cc(OC)ccc23)CN1C(=O)[C@@H](NC(=O)OC(C)(C)C)C(C)(C)C)C(=O)NS(=O)(=O)c1ccc(Cl)s1 (stereo in doubt) [Compound 2, (1-{4-(7-Methoxy-2-phenylquinolin-4-yloxy)-2-[1-(5-Chlorothiophene-2-sulfonylaminocarbonyl)-2-vinyl-cyclopropylcarbamoyl]-pyrrolidine-1-carbonyl}-2,2-dimethylpropyl)carbamic acid tert-butyl ester]	100 to 1000 nM	< 100 nM
C=CC1C[C@]1(NC(=O)[C@@H]1C[C@@H](Oc2cc(-c3ccccc3)nc3cc(OC)ccc23)CN1C(=O)[C@@H](NC(=O)OC(C)(C)C)C(C)(C)C)C(=O)NS(=O)(=O)c1ccc([N+](=O)[O-])s1 (stereo in doubt) [Compound 3, (1-{4-(7-Methoxy-2-phenylquinolin-4-yloxy)-2-[1-(5-Nitrothiophene-2-sulfonylaminocarbonyl)-2-vinyl-cyclopropylcarbamoyl]pyrrolidine-1-carbonyl}-2,2-dimethylpropyl)carbamic acid tert-butyl ester]	100 to 1000 nM	100 to 1000 nM
C=CC1C[C@]1(NC(=O)[C@@H]1C[C@@H](Oc2cc(-c3ccccc3)nc3cc(OC)ccc23)CN1C(=O)[C@@H](NC(=O)OC(C)(C)C)C(C)(C)C)C(=O)NS(=O)(=O)c1ccc(Br)s1 (stereo in doubt) [Compound 4, (1-{4-(7-Methoxy-2-phenylquinolin-4-yloxy)-2-[1-(5-Bromothiophene-2-sulfonylaminocarbonyl)-2-vinyl-cyclopropylcarbamoyl]pyrrolidine-1-carbonyl}-2,2-dimethylpropyl)carbamic acid tert-butyl ester]	100 to 1000 nM	< 100 nM
C=CC1C[C@]1(NC(=O)[C@@H]1C[C@@H](Oc2cc(-c3ccccc3)nc3cc(OC)ccc23)CN1C(=O)[C@@H](NC(=O)OC(C)(C)C)C(C)(C)C)C(=O)NS(=O)(=O)c1ccc(Sc2ccc(Cl)cc2)s1 (stereo in doubt) [Compound 5, {1-[2-{1-[5-(4-Chlorophenylsulfanyl)-thiophene-2-sulfonylamino-carbonyl]-2-vinyl-cyclopropylcarbamoyl}-4-(7-methoxy-2-phenyl-quinolin-4-yloxy)-pyrrolidine-1-carbonyl]-2,2-dimethylpropyl}carbamic acid tert-butyl ester]	1000 to 10000 nM	100 to 1000 nM
C=CC1C[C@]1(NC(=O)[C@@H]1C[C@@H](Oc2cc(-c3ccccc3)nc3cc(OC)ccc23)CN1C(=O)[C@@H](NC(=O)OC(C)(C)C)C(C)(C)C)C(=O)NS(=O)(=O)c1cc(Br)c(Cl)s1 (stereo in doubt) [Compound 7, {1-[2-{1-[4-Bromo-5-chlorothiophene-2-sulfonylamino-carbonyl]-2-vinylcyclopropylcarbamoyl}-4-(7-methoxy-2-phenyl-quinolin-4-yloxy)pyrrolidine-1-carbonyl]-2,2-dimethylpropyl}carbamic acid tert-butyl ester]	1000 to 10000 nM	< 100 nM
C=CC1C[C@]1(NC(=O)[C@@H]1C[C@@H](Oc2cc(-c3ccccc3)nc3cc(OC)ccc23)CN1C(=O)[C@@H](NC(=O)OC(C)(C)C)C(C)(C)C)C(=O)NS(=O)(=O)c1cc(Cl)c(Cl)s1 (stereo in doubt) [Compound 8, {1-[2-{1-[4,5-dichlorothiophene-2-sulfonylaminocarbonyl]-2-vinylcyclopropylcarbamoyl}-4-(7-methoxy-2-phenyl-quinolin-4-yloxy)pyrrolidine-1-carbonyl]-2,2-dimethylpropyl}carbamic acid tert-butyl ester]	100 to 1000 nM	< 100 nM
C=CC1C[C@]1(NC(=O)[C@@H]1C[C@@H](Oc2cc(-c3ccccc3)nc3cc(OC)ccc23)CN1C(=O)[C@@H](NC(=O)OC(C)(C)C)C(C)(C)C)C(=O)NS(=O)(=O)c1sc(C)nc1C (stereo in doubt) [Compound 9, {1-[2-{1-[2,4-dimethylthiazole-5-sulfonylaminocarbonyl]-2-vinylcyclopropylcarbamoyl}-4-(7-methoxy-2-phenyl-quinolin-4-yloxy)pyrrolidine-1-carbonyl]-2,2-dimethylpropyl}carbamic acid tert-butyl ester]	100 to 1000 nM	< 100 nM
C=CC1C[C@]1(NC(=O)[C@@H]1C[C@@H](Oc2cc(-c3ccccc3)nc3cc(OC)ccc23)CN1C(=O)[C@@H](NC(=O)OC(C)(C)C)C(C)(C)C)C(=O)NS(=O)(=O)c1ccc(C)cn1 (stereo in doubt) [Compound 10, (1-{4-(7-Methoxy-2-phenyl-quinolin-4-yloxy)-2-[1-(5-methyl-pyridine-2-sulfonylaminocarbonyl)-2-vinylcyclopropylcarbamoyl]pyrrolidine-1-carbonyl}-2,2-dimethylpropyl)carbamic acid tert-butyl ester]	100 to 1000 nM	< 100 nM
